Experimental data published in patent US5416090A, “Method of treating inflammation” (priority 1992, dated 1995).

Columns and labels:
[1] = system: corticosterone; assay: Serum/plasma corticosterone levels in mice; format: in vivo, mouse (Balb/C); conditions: FIG. 10 Panel A; 1 and 3 hr. following injection
Description: Dopamine agonists are known to elevate circulating glucocorticoid levels, via activation of the hypothalamo-pituitary-adrenal axis. […] Since glucocorticoids are potential endogenous anti-inflammatory substances, this action is one potential mechanism for the anti-inflammatory effect of the ergolines. However, in subsequent inflammation studies, the anti-inflammatory effects of D-1-isopropyl-6-n-propyl-8β-methylthiomethyl ergoline were retained in mice lacking an adrenal gland and therefore devoid of the increase in circulating corticosterone. (FIG. 10B)
(§1) Both Balb/C mice (male, approximately 20 g, Charles Rivers) and Lewis rats (male, approximately 200 g, Charles River or Harlan Sprague Dawley) were used in neuroendocrine studies. Animals were maintained on a 12:12 hour light:dark cycle and were allowed ad lib access for food (Purina lab chow) and water. Experimental groups consisted of 6 to 8 animals.
After dosing with test compounds, animals were sacrificed by decapitation at 1, 3, 8 or 24 hour intervals. Trunk blood was collected, allowed to clot and serum obtained after centrifugation (3000 rpm for 15 min.). Serum was aliquoted and stored at -70° C. for subsequent radioimmunoassays. Serum prolactin was determined by radioimmunoassay. Serum corticosterone levels were determined with a kit designed for such determinations and obtained from ICN.

[2] = system: serum prolactin; assay: Serum prolactin levels in rats; format: in vivo, rat (Lewis); conditions: FIG. 11, 0.3, 3 and 30 mg/kg, 1 hour post-treatment
Description: A further mechanistic study wherein rat serum prolactin levels were quantitated 1 hour post-treatment with varying doses of D-1-isopropyl-6-n-propyl-8β-methylthiomethyl ergoline is summarized in FIG. 11. […] A time course/dose response study of D-1-isopropyl-6-n-propyl-8β-methylthio-methyl ergoline effects on murine serum prolactin levels is presented in FIG. 12. […] There is however a disparity between the suppression of prolactin and anti-inflammatory activities of the ergolines with regard to the dose response profiles. Serum prolactin levels are much more sensitive to D-1-isopropyl-6-n-propyl-8β-methylthiomethyl ergoline (maximal suppression ~≤0.1 mg/kg) than are the anti-inflammatory effects 3-10 mg/kg, See FIG. 5).
as §1
After dosing with test compounds, animals were sacrificed by decapitation at 1, 3, 8 or 24 hour intervals. […] Serum prolactin was determined by radioimmunoassay. Serum corticosterone levels were determined with a kit designed for such determinations and obtained from ICN.

CCCN1C[C@H](CSC)C[C@@H]2c3cccc4c3c(cn4C(C)C)C[C@H]21 [Compound 1, D-1-isopropyl-6-n-propyl-8β-methylthiomethyl ergoline]
effect on plasma corticosterone [1]: increase plasma cortiosterone | serum prolactin levels ([2]; listed as D-1-isopropyl-6-n-propyl-8β-methylthiomethyl ergoline): dramatically reduced serum prolactin levels | serum prolactin levels ([2]; listed as compound 1): Suppression of serum prolactin levels
